Laboratory results: ChEMBL document CHEMBL3259726, “Identification of a new series of potent diphenol HSP90 inhibitors by fragment merging and structure-based optimization” (Bioorg Med Chem Lett, 2014)

How the values were obtained:
CYP2C19 = CYP2C19 (Homo sapiens, UniProt P33261); assay: Inhibition of CYP2C19 in human liver microsomes using mephenytoin as substrate at 10 uM; format: ADME; conditions: probe mephenytoin
CYP3A4 = CYP3A4 (Homo sapiens, UniProt P08684); assay: Inhibition of CYP3A4 in human liver microsomes using midazolam or testosterone as substrate at 10 uM; format: ADME; conditions: probe midazolam or testosterone
Chain of CYP3A4 (P08684 whole entry): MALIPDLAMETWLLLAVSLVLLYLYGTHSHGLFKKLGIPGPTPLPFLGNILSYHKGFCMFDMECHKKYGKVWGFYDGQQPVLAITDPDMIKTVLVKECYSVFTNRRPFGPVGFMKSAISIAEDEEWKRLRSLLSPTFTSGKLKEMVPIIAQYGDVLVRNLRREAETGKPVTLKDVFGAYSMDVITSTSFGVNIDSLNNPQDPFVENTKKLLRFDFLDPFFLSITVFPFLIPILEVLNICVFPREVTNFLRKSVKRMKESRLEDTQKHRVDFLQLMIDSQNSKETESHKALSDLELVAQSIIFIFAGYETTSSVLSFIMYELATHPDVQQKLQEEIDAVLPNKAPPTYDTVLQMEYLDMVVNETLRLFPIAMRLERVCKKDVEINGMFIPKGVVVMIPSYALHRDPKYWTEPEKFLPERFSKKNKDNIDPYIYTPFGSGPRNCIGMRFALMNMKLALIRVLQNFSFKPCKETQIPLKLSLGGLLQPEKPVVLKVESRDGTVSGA

CYP2C9 = CYP2C9 (Homo sapiens, UniProt P11712); assay: Inhibition of CYP2C9 in human liver microsomes using diclofenac as substrate at 10 uM; format: ADME; conditions: probe diclofenac
Chain of CYP2C9 (P11712 whole entry): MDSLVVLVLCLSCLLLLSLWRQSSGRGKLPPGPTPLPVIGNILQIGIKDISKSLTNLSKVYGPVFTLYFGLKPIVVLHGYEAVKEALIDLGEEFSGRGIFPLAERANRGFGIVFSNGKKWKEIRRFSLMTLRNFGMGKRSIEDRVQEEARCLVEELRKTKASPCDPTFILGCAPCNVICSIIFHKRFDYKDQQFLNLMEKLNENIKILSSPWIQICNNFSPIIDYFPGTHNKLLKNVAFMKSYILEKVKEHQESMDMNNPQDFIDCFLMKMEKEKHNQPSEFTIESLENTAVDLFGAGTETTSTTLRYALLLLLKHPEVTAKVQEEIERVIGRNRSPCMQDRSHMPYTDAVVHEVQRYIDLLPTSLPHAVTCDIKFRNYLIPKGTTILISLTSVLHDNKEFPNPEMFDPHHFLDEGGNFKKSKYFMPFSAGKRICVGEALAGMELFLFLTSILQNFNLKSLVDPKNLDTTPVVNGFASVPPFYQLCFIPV

CYP2D6 = CYP2D6 (Homo sapiens, UniProt P10635); assay: Inhibition of CYP2D6 in human liver microsomes using dextromethorphan as substrate at 10 uM; format: ADME; conditions: probe dextromethorphan
Chain of CYP2D6 (P10635 whole entry): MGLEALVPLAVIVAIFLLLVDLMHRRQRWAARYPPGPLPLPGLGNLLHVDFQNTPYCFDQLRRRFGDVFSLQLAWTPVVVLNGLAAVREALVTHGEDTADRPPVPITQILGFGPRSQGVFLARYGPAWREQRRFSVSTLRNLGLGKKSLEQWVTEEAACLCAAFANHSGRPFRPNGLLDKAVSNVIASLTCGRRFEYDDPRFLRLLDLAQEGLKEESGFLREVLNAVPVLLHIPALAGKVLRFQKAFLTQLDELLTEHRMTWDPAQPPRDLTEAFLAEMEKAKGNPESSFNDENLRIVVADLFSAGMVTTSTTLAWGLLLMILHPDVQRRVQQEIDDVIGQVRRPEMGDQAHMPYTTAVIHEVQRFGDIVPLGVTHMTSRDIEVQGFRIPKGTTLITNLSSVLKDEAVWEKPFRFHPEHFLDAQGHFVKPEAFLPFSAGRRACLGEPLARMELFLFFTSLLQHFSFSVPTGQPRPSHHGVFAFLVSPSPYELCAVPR

[1] = Retention time of the compound; format: physicochemical
[2] = Intrinsic clearance in rat liver microsomes at 1 uM after 5 mins by LC-MS/MS analysis; format: ADME; conditions: read-out: CLH
[3] = target: T1, Heat shock protein HSP 90-alpha (Homo sapiens, UniProt P07900); assay: biochemical
Description: Displacement of GM-BODIPY from human full length HSP90 alpha expressed in baculovirus-infected Sf9 cells after 16 hrs by fluorescence polarization assay

[4] = Intrinsic clearance in human liver microsomes at 1 uM after 5 mins by LC-MS/MS analysis; format: ADME; conditions: read-out: CLH
CYP1A2 = target: T2, CYP1A2 (Homo sapiens, UniProt P05177); assay: Inhibition of CYP1A2 in human liver microsomes using phenacetin as substrate at 10 uM; format: ADME; conditions: probe phenacetin
T2 sequence (P05177 whole entry): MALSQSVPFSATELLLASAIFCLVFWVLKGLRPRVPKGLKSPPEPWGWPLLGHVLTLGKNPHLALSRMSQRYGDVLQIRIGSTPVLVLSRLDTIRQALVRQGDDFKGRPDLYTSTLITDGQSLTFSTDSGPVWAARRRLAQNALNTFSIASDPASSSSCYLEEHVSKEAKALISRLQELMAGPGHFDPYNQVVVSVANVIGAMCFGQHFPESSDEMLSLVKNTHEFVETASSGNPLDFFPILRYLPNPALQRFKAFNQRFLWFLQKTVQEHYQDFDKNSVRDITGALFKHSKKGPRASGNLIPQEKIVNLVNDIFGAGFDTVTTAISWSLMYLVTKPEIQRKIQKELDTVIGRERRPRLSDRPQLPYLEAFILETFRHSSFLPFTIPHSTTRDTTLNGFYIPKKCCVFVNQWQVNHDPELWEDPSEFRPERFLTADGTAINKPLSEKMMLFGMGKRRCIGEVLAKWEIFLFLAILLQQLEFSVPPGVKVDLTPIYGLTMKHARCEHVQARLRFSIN

A549 = assay: Growth inhibition of human A549 cells after 72 hrs by spectrophotometer analysis; format: functional; conditions: A549, 72 h
[5] = Growth inhibition of human BT474 cells after 72 hrs by spectrophotometer analysis; format: functional; conditions: BT-474, 72 h
[6] = Growth inhibition of human NCI-H3122 cells after 72 hrs by spectrophotometer analysis; format: functional; conditions: NCI-H3122, 72 h
HCT-116 = assay: Growth inhibition of human HCT116 cells after 72 hrs by spectrophotometer analysis; format: functional; conditions: HCT-116, 72 h
[7] = target: T1, Heat shock protein HSP 90-alpha; assay: Displacement of GM-BODIPY from human full length HSP90 alpha expressed in baculovirus-infected Sf9 cells at 5 uM after 16 hrs by fluorescence polarization assay
Cytochrome P450 2C19 = Cytochrome P450 2C19 (Homo sapiens, UniProt P33261); assay: Time-dependent inhibition of CYP2C19 in human liver microsomes using mephenytoin as substrate at 10 uM; format: ADME; conditions: TDE = time-dependent effect
Chain of Cytochrome P450 2C19 (P33261 whole entry): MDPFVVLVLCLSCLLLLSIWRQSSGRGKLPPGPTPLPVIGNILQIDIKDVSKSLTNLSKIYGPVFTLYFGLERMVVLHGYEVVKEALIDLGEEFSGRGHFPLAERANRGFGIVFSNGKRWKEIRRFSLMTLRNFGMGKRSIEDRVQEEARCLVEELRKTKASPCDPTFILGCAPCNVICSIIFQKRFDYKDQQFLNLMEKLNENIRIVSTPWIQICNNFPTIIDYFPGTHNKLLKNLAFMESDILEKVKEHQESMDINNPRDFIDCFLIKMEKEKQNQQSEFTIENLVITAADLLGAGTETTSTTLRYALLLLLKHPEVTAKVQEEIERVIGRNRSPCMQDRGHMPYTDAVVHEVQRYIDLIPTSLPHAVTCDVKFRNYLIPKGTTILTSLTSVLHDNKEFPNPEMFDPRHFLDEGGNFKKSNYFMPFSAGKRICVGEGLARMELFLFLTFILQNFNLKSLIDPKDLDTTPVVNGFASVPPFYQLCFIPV

[8] = target: T1, Heat shock protein HSP 90-alpha; assay: Displacement of GM-BODIPY from human full length HSP90 alpha expressed in baculovirus-infected Sf9 cells at 1 uM after 16 hrs by fluorescence polarization assay

Chain of CYP2C19 (P33261 whole entry): as above

Compound	inhibition at 10 µM (CYP2C19) [%]	inhibition at 10 µM (CYP3A4) [%]	inhibition at 10 µM (CYP2C9) [%]	inhibition at 10 µM (CYP2D6) [%]	Retention_time [1] [min]	microsomal CLint at 1 µM [2] [µL/min/mg]	IC50 [3] [µM]	inhibition at 10 µM (CYP1A2) [%]	further results
O=C(c1cc(Nc2ccccc2)c(O)cc1O)N1Cc2ccccc2C1	52	19	68	22	3.12	12	0.021	72	microsomal CLint at 1 µM [4]: 2 µL/min/mg
Cc1ccc2c(ccn2-c2cc(C(=O)N3Cc4ccccc4C3)c(O)cc2O)c1	63	4	68	7	3.68	42	0.038	28	GI50 (A549): 11.1 µM; GI50 [5]: 7.07 µM; GI50 [6]: 7.53 µM; GI50 (HCT-116): 8.6 µM
CN1CCN(C(=O)c2cc(-c3nnc4ccc(Br)cn34)c(O)cc2O)CC1	–	–	–	–	1.86	–	–	–	inhibition [7]: 8.8%
O=C(c1cc(-n2ccc3ccccc32)c(O)cc1O)N1Cc2ccccc2C1	60	17	73	14	3.56	25	0.038	52	GI50 (A549): 14.3 µM; GI50 [5]: 7.25 µM; GI50 [6]: 7.53 µM; GI50 (HCT-116): 10.1 µM; microsomal CLint at 1 µM [4]: 13 µL/min/mg
O=C(c1cc(-n2ccc3ccccc32)c(O)cc1O)N1CCc2ccccc2C1	–	–	–	–	3.54	–	0.13	–	–
Cc1ccc(Nc2cc(C(=O)N3Cc4ccccc4C3)c(O)cc2O)cc1	58	38	75	7	3.29	–	0.071	61	–
O=C(c1cc(-n2ccc3cc(Br)ccc32)c(O)cc1O)N1Cc2ccccc2C1	71	13	78	32	3.8	16	0.078	48	microsomal CLint at 1 µM [4]: 18 µL/min/mg
O=C(c1cc(-n2ccc3c([N+](=O)[O-])cccc32)c(O)cc1O)N1Cc2ccccc2C1	89	8	74	50	3.45	6	0.039	47	inhibition (INH) (Cytochrome P450 2C19): tde; microsomal CLint at 1 µM [4]: 22 µL/min/mg
CNC(=O)c1cccc2c1ccn2-c1cc(C(=O)N2Cc3ccccc3C2)c(O)cc1O	–	–	–	–	2.74	–	0.62	–	–
COc1ccc2c(c1)c(CCNC(C)=O)cn2-c1cc(C(=O)N2Cc3ccccc3C2)c(O)cc1O	–	–	–	–	3.04	–	–	–	inhibition [8]: 56.9%
O=C(O)Cc1cn(-c2cc(C(=O)N3Cc4ccccc4C3)c(O)cc2O)c2ccccc12	–	–	–	–	2.97	–	–	–	inhibition [8]: 14.1%
O=C(c1cc(-n2ccc3c(Br)cccc32)c(O)cc1O)N1Cc2ccccc2C1	70	22	54	19	3.8	49	0.07	34	GI50 (A549): 21 µM; GI50 [5]: 8.52 µM; GI50 [6]: 9.67 µM; GI50 (HCT-116): 12.3 µM
O=C(c1cc(-n2ccc3ncccc32)c(O)cc1O)N1Cc2ccccc2C1	–	–	–	–	2.4	–	0.13	–	–
CN1CCN(C(=O)c2cc(-n3ccc4ccccc43)c(O)cc2O)CC1	–	–	–	–	2.35	–	0.63	–	–
O=C(c1cc(Nc2ccc(Cl)cc2Cl)c(O)cc1O)N1Cc2ccccc2C1	23	33	73	5	3.87	16	0.19	40	GI50 (A549): 24.2 µM; GI50 [5]: 6.31 µM; GI50 [6]: 10.1 µM; GI50 (HCT-116): 10.6 µM
COc1ccc2c(c1)c(CCN)cn2-c1cc(C(=O)N2Cc3ccccc3C2)c(O)cc1O	–	–	–	–	2.69	–	1.5	–	–
COC(=O)c1cccc2c1ccn2-c1cc(C(=O)N2Cc3ccccc3C2)c(O)cc1O	–	–	–	–	3.32	–	0.13	–	–
O=C(c1cc(-n2ccc3cnccc32)c(O)cc1O)N1Cc2ccccc2C1	–	–	–	–	2.45	–	0.25	–	–
O=C(c1cc(-c2nnc3ccc(Br)cn23)c(O)cc1O)N1CCc2ccccc2C1	–	–	–	–	2.76	–	–	–	inhibition [7]: 18.7%
O=C(c1cc(-n2ccc3ccccc32)c(O)cc1O)N1CCc2sccc2C1	–	–	–	–	3.45	–	0.33	–	–
